From patent US7704995B2 (Exelixis, Inc., priority 2003, dated 2010)
Like-named read-outs stand apart in the source and are kept apart here.

Molecular target: T1, Chk1 (Homo sapiens, UniProt O14757)
T1 construct: purchased Upstate Biotechnology
T1 sequence (O14757 1-476): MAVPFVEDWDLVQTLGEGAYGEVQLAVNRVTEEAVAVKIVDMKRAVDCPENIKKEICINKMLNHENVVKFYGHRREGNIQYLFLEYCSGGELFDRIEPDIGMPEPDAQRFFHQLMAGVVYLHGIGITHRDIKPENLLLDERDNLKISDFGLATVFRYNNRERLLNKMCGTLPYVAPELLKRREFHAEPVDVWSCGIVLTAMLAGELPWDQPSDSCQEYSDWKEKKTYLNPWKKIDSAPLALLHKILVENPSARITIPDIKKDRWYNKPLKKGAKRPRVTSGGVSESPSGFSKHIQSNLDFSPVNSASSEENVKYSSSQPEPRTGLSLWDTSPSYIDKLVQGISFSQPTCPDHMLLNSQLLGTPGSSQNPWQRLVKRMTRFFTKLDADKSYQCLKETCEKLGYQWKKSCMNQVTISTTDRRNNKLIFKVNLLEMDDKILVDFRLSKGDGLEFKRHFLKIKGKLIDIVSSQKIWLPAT
Assay: Chk1 kinase assay: incorporation of γ-33P ATP into immobilized myelin basic protein
Format: biochemical
Details: read-out: Chk1 IC50
Procedure, shortened: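 Read-out is scintillation counting of 33P incorporated into plate-bound myelin basic protein. Chk1 runs at 10 nM enzyme with 10 μM ATP, Chk2 at 20 nM with 30 μM ATP, each for 1 hour at room temperature. Duplicate points; IC50 taken as 50% activity reduction, Ki computed from IC50.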

[1] = Table 11, Chk1 only, class symbols A-D

| IC50 (Table 11, Chk1 only) [nM] | IC50 [nM] | Structure (SMILES) | further results |
| --- | --- | --- | --- |
| 1000 to 10000 | – | CNC(=O)c1nc(-c2cccc(CN[C@H](C(=O)OC)c3ccccc3)c2)cnc1N [Example 429, methyl (2S)-{[(3-{5-amino-6-[(methylamino)carbonyl]pyrazin-2-yl}phenyl)methyl]amino}(phenyl)ethanoate] | – |
| – | 1000 to 10000 | CNC(=O)c1nc(-c2cccc(C(=O)NC(C)c3ccc(F)cc3)c2)cnc1N (centres unmarked) [Example 112, 3-amino-6-[3-({[1-(4-fluorophenyl)ethyl]amino}carbonyl)phenyl]-N-methylpyrazine-2-carboxamide] | – |
| – | 50 to 1000 | CNC(=O)c1nc(-c2cccc(OCCc3ccccc3)c2)cnc1N [Example 174, 3-amino-N-methyl-6-{3-[(2-phenylethyl)oxy]phenyl}pyrazine-2-carboxamide] | – |
| – | – | Cc1ccc(CNC(=O)c2cccc(-c3cnc(N)c(C(=O)N[C@H]4CCCNC4)n3)c2)c(C)c1 [Example 1038, 3-amino-6-[3-({[(2,4-dimethylphenyl)methyl]amino}carbonyl)phenyl]-N-[(3S)-piperidin-3-yl]pyrazine-2-carboxamide] | IC50 [1]: < 50 nM |
| – | 50 to 1000 | CNC(=O)c1nc(-c2cccc(C(=O)NCc3ccc(OC)cc3)c2)cnc1N [Example 95, 3-amino-N-methyl-6-{3-[({[4-(methyloxy)phenyl]methyl}amino)carbonyl]phenyl}pyrazine-2-carboxamide] | – |
| < 50 | – | CNC(=O)c1nc(-c2cccc(CN[C@H]3CCc4cc(Br)ccc4C3)c2)cnc1N [Example 462, 3-amino-6-[3-({[(2S)-6-bromo-1,2,3,4-tetrahydronaphthalen-2-yl]amino}methyl)phenyl]-N-methylpyrazine-2-carboxamide] | – |
| – | 50 to 1000 | CNC(=O)c1nc(-c2cccc(NC(=O)c3ccccc3)c2)cnc1N [Example 81, 3-amino-N-methyl-6-{3-[(phenylcarbonyl)amino]phenyl}pyrazine-2-carboxamide] | – |
| – | – | Nc1ncc(-c2cccc(C(=O)NCc3ccc(F)c(C(F)(F)F)c3)c2)nc1C(=O)N[C@H]1CCCNC1 [Example 850, 3-amino-6-{3-[({[4-fluoro-3-(trifluoromethyl)phenyl]methyl}amino)carbonyl]phenyl}-N-[(3S)-piperidin-3-yl]pyrazine-2-carboxamide] | IC50 [1]: < 50 nM |
| – | 50 to 1000 | CNC(=O)c1nc(-c2cccc(C(=O)NCc3cc(OC)ccc3OC)c2)cnc1N [Example 294, 3-amino-6-{3-[({[2,5-bis(methyloxy)phenyl]methyl}amino)carbonyl]phenyl}-N-methylpyrazine-2-carboxamide] | – |
| – | – | Cc1cc(C)cc(CNC(=O)c2cccc(-c3cnc(N)c(C(=O)N[C@H]4CCCNC4)n3)c2)c1 [Example 1037, 3-amino-6-[3-({[(3,5-dimethylphenyl)methyl]amino}carbonyl)phenyl]-N-[(3S)-piperidin-3-yl]pyrazine-2-carboxamide] | IC50 [1]: < 50 nM |
| – | – | Nc1ncc(-c2cccc(NC(=O)c3cccnc3)c2)nc1C(=O)N[C@H]1CCCNC1 [Example 981, 3-amino-N-[(3S)-piperidin-3-yl]-6-{3-[(pyridin-3-ylcarbonyl)amino]phenyl}pyrazine-2-carboxamide] | IC50 [1]: < 50 nM |
| – | 50 to 1000 | CNC(=O)c1nc(-c2cccc(C(=O)NCc3ccccc3OCCN3CCOCC3)c2)cnc1N [Example 373, 3-amino-N-methyl-6-(3-{[({2-[(2-morpholin-4-ylethyl)oxy]phenyl}methyl)amino]carbonyl}phenyl)pyrazine-2-carboxamide] | – |
| 50 to 1000 | – | CNC(=O)c1nc(-c2cc(C(=O)NC3CCNC3)cc(C(=O)N[C@H]3CCc4ccccc43)c2)cnc1N (stereo partly drawn) [Example 791, 5-{5-amino-6-[(methylamino)carbonyl]pyrazin-2-yl}-N-[(1S)-2,3-dihydro-1H-inden-1-yl]-N′-pyrrolidin-3-ylbenzene-1,3-dicarboxamide] | – |
| – | 50 to 1000 | CNC(=O)c1nc(-c2cccc(C(=O)NCc3ccc(O)cc3)c2)cnc1N [Example 323, 3-amino-6-[3-({[(4-hydroxyphenyl)methyl]amino}carbonyl)phenyl]-N-methylpyrazine-2-carboxamide] | – |
| – | 50 to 1000 | CNC(=O)c1nc(-c2cccc(COCc3ccccc3)c2)cnc1N [Example 314, 3-amino-N-methyl-6-(3-{[(phenylmethyl)oxy]methyl}phenyl)pyrazine-2-carboxamide] | – |
| – | 50 to 1000 | CNC(=O)c1nc(-c2cccc(CSCc3ccccc3)c2)cnc1N [Example 312, 3-amino-N-methyl-6-(3-{[(phenylmethyl)thio]methyl}phenyl)pyrazine-2-carboxamide] | – |

| IC50 (Table 11, Chk1 only) [nM] | IC50 [nM] | Structure (SMILES) | further results |
| --- | --- | --- | --- |
| – | – | Nc1ncc(-c2cccc(C(=O)NCc3ccc(F)c(F)c3F)c2)nc1C(=O)N[C@H]1CCCNC1 [Example 1016, 3-amino-N-[(3S)-piperidin-3-yl]-6-[3-({[(2,3,4-trifluorophenyl)methyl]amino}carbonyl)phenyl]pyrazine-2-carboxamide] | IC50 [1]: < 50 nM |
| 50 to 1000 | – | CC(C)(NC(=O)c1cccc(-c2cnc(N)c(C(=O)N[C@H]3CCNC3)n2)c1)c1ccccc1 [Example 801, 3-amino-6-(3-{[(1-methyl-1-phenylethyl)amino]carbonyl}phenyl)-N-[(3S)-pyrrolidin-3-yl]pyrazine-2-carboxamide] | – |
| 50 to 1000 | – | CN1CC[C@H](NC(=O)c2nc(-c3cccc(C(=O)N[C@H]4CCc5ccccc54)c3)cnc2N)C1 [Example 804, 3-amino-6-(3-{[(1S)-2,3-dihydro-1H-inden-1-ylamino]carbonyl}phenyl)-N-[(3S)-1-methylpyrrolidin-3-yl]pyrazine-2-carboxamide] | – |
| – | – | Cc1cccc(-c2cnc(N)c(C(=O)N[C@H]3CCCCNC3)n2)c1 [Example 974, 3-amino-N-[(3S)-azepan-3-yl]-6-(3-methylphenyl)pyrazine-2-carboxamide] | IC50 [1]: < 50 nM |
| 50 to 1000 | – | Nc1ncc(-c2cccc(CO)c2)nc1-c1nc(C2CNCCO2)n[nH]1 (centres unmarked) [Example 703, {3-[5-amino-6-(3-morpholin-2-yl-1H-1,2,4-triazol-5-yl)pyrazin-2-yl]phenyl}methanol] | – |
| 50 to 1000 | – | CNC(=O)c1nc(-c2cccc([C@H](C)N[C@H]3CCc4ccccc43)c2)cnc1N [Example 750, 3-amino-6-(3-{(1S)-1-[(1S)-2,3-dihydro-1H-inden-1-ylamino]ethyl}phenyl)-N-methylpyrazine-2-carboxamide] | – |
| – | 50 to 1000 | CNC(=O)c1nc(-c2cccc(C(=O)NCc3cc(F)cc(C(F)(F)F)c3)c2)cnc1N [Example 172, 3-amino-6-{3-[({[3-fluoro-5-(trifluoromethyl)phenyl]methyl}amino)carbonyl]phenyl}-N-methylpyrazine-2-carboxamide] | – |
| – | 50 to 1000 | CNC(=O)c1nc(-c2cccc(C(=O)NCc3cc(F)c(F)cc3F)c2)cnc1N [Example 251, 3-amino-N-methyl-6-[3-({[(2,4,5-trifluorophenyl)methyl]amino}carbonyl)phenyl]pyrazine-2-carboxamide] | – |
| ≥ 10000 | – | CN(C)c1ccc(C(=O)c2nc(-c3cccc(C(=O)NCc4ccccc4)c3)cnc2N)cc1 [Example 589, 3-(5-amino-6-{[4-(dimethylamino)phenyl]carbonyl}pyrazin-2-yl)-N-(phenylmethyl)benzamide] | – |
| 50 to 1000 | – | CNC(=O)c1nc(-c2cccc(CNC3CCc4cc(OCC#N)ccc43)c2)cnc1N (centres unmarked) [Example 508, 3-amino-6-{3-[({5-[(cyanomethyl)oxy]-2,3-dihydro-1H-inden-1-yl}amino)methyl]phenyl}-N-methylpyrazine-2-carboxamide] | – |
| – | – | Nc1ncc(-c2cccc(CNCc3ccc(F)cc3F)c2)nc1C(=O)N[C@H]1CCCNC1 [Example 999, 3-amino-6-[3-({[(2,4-difluorophenyl)methyl]amino}methyl)phenyl]-N-[(3S)-piperidin-3-yl]pyrazine-2-carboxamide] | IC50 [1]: < 50 nM |
| ≥ 10000 | – | CCOC(=O)[C@H](Cc1ccc(O)cc1)NC(=O)c1nc(-c2cccc(C(=O)NCc3ccccc3)c2)cnc1N [Example 610, ethyl N-{[3-amino-6-(3-{[(phenylmethyl)amino]carbonyl}phenyl)pyrazin-2-yl]carbonyl}-L-tyrosinate] | – |
| – | 50 to 1000 | CNC(=O)c1nc(-c2cccc(CNC(=O)c3ccccc3)c2)cnc1N [Example 308, 3-amino-N-methyl-6-(3-{[(phenylcarbonyl)amino]methyl}phenyl)pyrazine-2-carboxamide] | – |
| 50 to 1000 | – | CC(C)(C)OC(=O)N1CCCC(NC(=O)c2nc(-c3cccc(C(=O)N[C@@H]4c5ccccc5C[C@@H]4O)c3)cnc2N)CC1 (stereo partly drawn) [Example 781, 1,1-dimethylethyl 4-[({3-amino-6-[3-({[(1R,2S)-2-hydroxy-2,3-dihydro-1H-inden-1-yl]amino}carbonyl)phenyl]pyrazin-2-yl}carbonyl)amino]azepane-1-carboxylate] | – |
| ≥ 10000 | – | Nc1ncc(-c2cccc(C(=O)NCc3ccccc3)c2)nc1C(=O)NCCCNC(=O)c1cnc2ccccc2n1 [Example 651, N-[3-({[3-amino-6-(3-{[(phenylmethyl)amino]carbonyl}phenyl)pyrazin-2-yl]carbonyl}amino)propyl]quinoxaline-2-carboxamide] | – |
| – | 50 to 1000 | CNC(=O)c1nc(-c2cccc(C(=O)NCc3cccc(OCCN4CCOCC4)c3)c2)cnc1N [Example 342, 3-amino-N-methyl-6-(3-{[({3-[(2-morpholin-4-ylethyl)oxy]phenyl}methyl)amino]carbonyl}phenyl)pyrazine-2-carboxamide] | – |
